One assay concerns the target T1, Neprilysin (Rattus norvegicus, UniProt P07861).
T1 sequence (P07861 whole entry): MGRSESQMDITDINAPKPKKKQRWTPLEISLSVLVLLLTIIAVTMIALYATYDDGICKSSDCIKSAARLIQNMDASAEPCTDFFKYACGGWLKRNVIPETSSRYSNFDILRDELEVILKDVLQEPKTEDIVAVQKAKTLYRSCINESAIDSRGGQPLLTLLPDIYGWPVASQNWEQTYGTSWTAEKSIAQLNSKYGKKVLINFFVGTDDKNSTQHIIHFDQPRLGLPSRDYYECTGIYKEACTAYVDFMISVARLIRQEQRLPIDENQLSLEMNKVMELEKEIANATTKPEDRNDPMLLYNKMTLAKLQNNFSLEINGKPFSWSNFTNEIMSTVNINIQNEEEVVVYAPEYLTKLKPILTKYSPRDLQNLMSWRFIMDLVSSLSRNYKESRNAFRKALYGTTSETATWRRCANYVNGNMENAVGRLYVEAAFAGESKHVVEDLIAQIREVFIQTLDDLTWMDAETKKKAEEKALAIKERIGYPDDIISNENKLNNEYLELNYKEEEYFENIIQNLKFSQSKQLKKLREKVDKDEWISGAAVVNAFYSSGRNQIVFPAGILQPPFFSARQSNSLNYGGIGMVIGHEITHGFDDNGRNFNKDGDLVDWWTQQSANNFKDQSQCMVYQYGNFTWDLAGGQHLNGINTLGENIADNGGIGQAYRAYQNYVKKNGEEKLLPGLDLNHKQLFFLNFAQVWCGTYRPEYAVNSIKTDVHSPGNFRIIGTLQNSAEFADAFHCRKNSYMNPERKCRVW
The assay can be described thus: Compound was measured for the inhibition of neutral endopeptidase 24.11(NEP).

Assay [1] deals with T2, Angiotensin-converting enzyme (Rattus norvegicus, UniProt P47820).
T2 sequence (P47820 whole entry): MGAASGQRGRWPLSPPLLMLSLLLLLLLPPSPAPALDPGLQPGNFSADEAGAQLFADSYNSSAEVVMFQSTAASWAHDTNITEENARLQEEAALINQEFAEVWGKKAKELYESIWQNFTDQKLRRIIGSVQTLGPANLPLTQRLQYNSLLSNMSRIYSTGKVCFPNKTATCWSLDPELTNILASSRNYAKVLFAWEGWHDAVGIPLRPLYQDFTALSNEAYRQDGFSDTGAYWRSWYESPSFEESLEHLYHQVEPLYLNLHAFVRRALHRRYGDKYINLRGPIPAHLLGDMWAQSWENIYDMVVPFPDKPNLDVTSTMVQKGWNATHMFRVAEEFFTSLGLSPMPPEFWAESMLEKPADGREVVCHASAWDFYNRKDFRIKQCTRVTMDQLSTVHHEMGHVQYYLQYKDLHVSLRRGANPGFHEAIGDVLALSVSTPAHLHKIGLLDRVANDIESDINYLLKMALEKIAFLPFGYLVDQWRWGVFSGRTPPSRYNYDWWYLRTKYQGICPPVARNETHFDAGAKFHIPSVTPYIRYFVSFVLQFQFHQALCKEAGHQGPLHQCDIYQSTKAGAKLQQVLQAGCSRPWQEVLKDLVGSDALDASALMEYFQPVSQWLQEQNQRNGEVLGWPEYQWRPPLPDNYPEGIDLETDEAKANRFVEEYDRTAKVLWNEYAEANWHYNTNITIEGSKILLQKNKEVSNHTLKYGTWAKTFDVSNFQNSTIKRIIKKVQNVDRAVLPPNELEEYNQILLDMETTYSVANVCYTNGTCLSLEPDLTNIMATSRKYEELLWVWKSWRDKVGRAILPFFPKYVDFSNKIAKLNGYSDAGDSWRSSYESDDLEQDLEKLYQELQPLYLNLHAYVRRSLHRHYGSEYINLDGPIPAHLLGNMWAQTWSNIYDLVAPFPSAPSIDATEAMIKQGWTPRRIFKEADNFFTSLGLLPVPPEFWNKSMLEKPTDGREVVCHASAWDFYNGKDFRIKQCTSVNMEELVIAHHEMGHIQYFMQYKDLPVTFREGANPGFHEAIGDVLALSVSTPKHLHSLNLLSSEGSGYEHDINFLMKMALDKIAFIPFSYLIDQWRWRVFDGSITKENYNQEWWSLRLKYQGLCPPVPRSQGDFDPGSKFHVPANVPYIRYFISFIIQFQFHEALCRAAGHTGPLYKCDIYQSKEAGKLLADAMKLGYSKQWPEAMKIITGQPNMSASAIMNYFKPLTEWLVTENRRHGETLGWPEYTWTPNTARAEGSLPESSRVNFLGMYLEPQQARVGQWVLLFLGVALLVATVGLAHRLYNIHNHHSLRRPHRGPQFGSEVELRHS
The assay can be described thus: Compound was measured for the inhibition of Angiotensin I converting enzyme.

pIC50: −log10 of the molar value.

As to `O=C(N[C@@H](Cc1ccccc1)P(=O)(O)CC1(C(=O)N[C@@H](Cc2c[nH]c3ccccc23)C(=O)O)CCCC1)c1ccc([N+](=O)[O-])cc1`, the results for the pIC50 (at Neprilysin; in assay [1]) were 7.26 and 8.82, respectively.

Consider `CS(=O)(=O)N[C@@H](CCCCN)C(=O)N[C@@H](Cc1ccccc1)P(=O)(O)CC1(C(=O)N[C@@H](Cc2c[nH]c3ccccc23)C(=O)O)CCCC1`, for which the pIC50 was 7.05 against Neprilysin and 8.60 in assay [1].
